Data published in US20100215579A1, “PHEN-NAPHTHALENE AND PHEN-QUINOLINE DERIVATIVES AND THEIR USE FOR BINDING AND IMAGING AMYLOID PLAQUES” (The Trustees of the University of Pennsylvania, priority 2007, published 2010).

Assay: Biodistribution in ICR mice after an iv injection
Format: in vivo
Source text: Biodistribution in ICR Mice After an iv Injection of [^18F][4-(6-{2-[2-(2-Fluoro-ethoxy)-ethoxy]-ethoxy}-naphthalen-2-yl)-phenyl]-methyl-amine in 1% EtOH/0.1% BSA in Water
(% dose/organ, avg of 3 mice±SD)
(% dose/g, avg of 3 mice±SD)
Biodistribution in ICR Mice After an iv Injection of [^18F]19a in 3% EtOH/0.1% BSA in Water
Biodistribution in ICR Mice After an iv Injection of [^18F]34a in 5% EtOH/0.1% BSA in Water
Biodistribution in ICR Mice After an iv Injection of [^18F]32a in 1% EtOH/0.1% BSA in Water

[1] = Blood, 2 min after iv injection
[2] = Blood, 30 min after iv injection
[3] = Bone, 30 min after iv injection
[4] = Brain, 2 min after iv injection
[5] = Brain, 30 min after iv injection
[6] = Heart, 2 min after iv injection
[7] = Heart, 30 min after iv injection
[8] = Kidney, 2 min after iv injection
[9] = Kidney, 30 min after iv injection
[10] = Kidney, 1 hr after iv injection
[11] = Kidney, 2 hr after iv injection
[12] = Liver, 2 min after iv injection
[13] = Liver, 30 min after iv injection
[14] = Lung, 30 min after iv injection
[15] = Muscle, 2 min after iv injection
[16] = Muscle, 30 min after iv injection
[17] = Muscle, 1 hr after iv injection
[18] = Muscle, 2 hr after iv injection
[19] = Skin, 30 min after iv injection
[20] = Spleen, 2 min after iv injection
[21] = Spleen, 30 min after iv injection
[22] = Spleen, 1 hr after iv injection
[23] = Spleen, 2 hr after iv injection

% dose/g [1]: 2.08 ± 0.20 % dose/g | % dose/organ [1]: 3.50 ± 0.18 % dose/organ | % dose/g [2]: 1.72 ± 0.29 % dose/g | % dose/organ [2]: 2.99 ± 0.48 % dose/organ | % dose/g (Blood, 1 hr after iv injection): 1.41 ± 0.33 % dose/g | % dose/organ (Blood, 1 hr after iv injection): 2.73 ± 0.41 % dose/organ | % dose/g (Blood, 2 hr after iv injection): 2.22 ± 0.37 % dose/g | % dose/organ (Blood, 2 hr after iv injection): 3.59 ± 0.53 % dose/organ | % dose/g (Bone, 2 min after iv injection): 2.14 ± 0.82 % dose/g | % dose/organ (Bone, 2 min after iv injection): 7.38 ± 3.40 % dose/organ | % dose/g [3]: 0.97 ± 0.03 % dose/g | % dose/organ [3]: 3.36 ± 0.09 % dose/organ | % dose/g (Bone, 1 hr after iv injection): 1.19 ± 0.21 % dose/g | % dose/organ (Bone, 1 hr after iv injection): 4.61 ± 0.36 % dose/organ | % dose/g (Bone, 2 hr after iv injection): 2.18 ± 0.19 % dose/g | % dose/organ (Bone, 2 hr after iv injection): 7.07 ± 0.57 % dose/organ | % dose/g [4]: 7.26 ± 1.28 % dose/g | % dose/organ [4]: 3.43 ± 0.51 % dose/organ | % dose/g [5]: 2.15 ± 0.25 % dose/g | % dose/organ [5]: 0.95 ± 0.08 % dose/organ | % dose/g (Brain, 1 hr after iv injection): 1.58 ± 0.18 % dose/g | % dose/organ (Brain, 1 hr after iv injection): 0.75 ± 0.06 % dose/organ | % dose/g (Brain, 2 hr after iv injection): 1.91 ± 0.12 % dose/g | % dose/organ (Brain, 2 hr after iv injection): 0.88 ± 0.06 % dose/organ | % dose/g [6]: 5.44 ± 0.25 % dose/g | % dose/organ [6]: 0.63 ± 0.08 % dose/organ | % dose/g [7]: 2.04 ± 0.30 % dose/g | % dose/organ [7]: 0.23 ± 0.02 % dose/organ | % dose/g (Heart, 1 hr after iv injection): 1.46 ± 0.24 % dose/g | % dose/organ (Heart, 1 hr after iv injection): 0.18 ± 0.01 % dose/organ | % dose/g (Heart, 2 hr after iv injection): 1.79 ± 0.19 % dose/g | % dose/organ (Heart, 2 hr after iv injection): 0.19 ± 0.03 % dose/organ | % dose/g [8]: 8.88 ± 1.80 % dose/g | % dose/organ [8]: 3.27 ± 0.60 % dose/organ | % dose/g [9]: 3.98 ± 0.64 % dose/g | % dose/organ [9]: 1.45 ± 0.12 % dose/organ | % dose/g [10]: 2.75 ± 0.35 % dose/g | % dose/organ [10]: 1.05 ± 0.25 % dose/organ | % dose/g [11]: 2.52 ± 0.18 % dose/g | % dose/organ [11]: 0.88 ± 0.10 % dose/organ | % dose/g [12]: 19.7 ± 3.24 % dose/g | % dose/organ [12]: 26.5 ± 2.18 % dose/organ | % dose/g [13]: 13.4 ± 1.30 % dose/g | % dose/organ [13]: 17.1 ± 1.54 % dose/organ | % dose/g (Liver, 1 hr after iv injection): 9.46 ± 1.50 % dose/g | % dose/organ (Liver, 1 hr after iv injection): 16.3 ± 1.39 % dose/organ | % dose/g (Liver, 2 hr after iv injection): 11.9 ± 1.87 % dose/g | % dose/organ (Liver, 2 hr after iv injection): 13.5 ± 1.77 % dose/organ | % dose/g (Lung, 2 min after iv injection): 5.73 ± 0.19 % dose/g | % dose/organ (Lung, 2 min after iv injection): 1.08 ± 0.05 % dose/organ | % dose/g [14]: 2.78 ± 0.30 % dose/g | % dose/organ [14]: 0.53 ± 0.10 % dose/organ | % dose/g (Lung, 1 hr after iv injection): 1.99 ± 0.26 % dose/g | % dose/organ (Lung, 1 hr after iv injection): 0.41 ± 0.05 % dose/organ | % dose/g (Lung, 2 hr after iv injection): 2.44 ± 0.37 % dose/g | % dose/organ (Lung, 2 hr after iv injection): 0.48 ± 0.16 % dose/organ | % dose/g [15]: 1.21 ± 0.98 % dose/g | % dose/organ [15]: 11.8 ± 9.69 % dose/organ | % dose/g [16]: 1.27 ± 0.06 % dose/g | % dose/organ [16]: 12.7 ± 0.64 % dose/organ | % dose/g [17]: 0.92 ± 0.09 % dose/g | % dose/organ [17]: 10.3 ± 0.54 % dose/organ | % dose/g [18]: 0.97 ± 0.06 % dose/g | % dose/organ [18]: 9.00 ± 0.56 % dose/organ | % dose/g (Skin, 2 min after iv injection): 1.01 ± 0.16 % dose/g | % dose/organ (Skin, 2 min after iv injection): 3.66 ± 0.74 % dose/organ | % dose/g [19]: 1.90 ± 0.08 % dose/g | % dose/organ [19]: 7.08 ± 0.26 % dose/organ | % dose/g (Skin, 1 hr after iv injection): 1.56 ± 0.18 % dose/g | % dose/organ (Skin, 1 hr after iv injection): 6.53 ± 0.12 % dose/organ | % dose/g (Skin, 2 hr after iv injection): 1.32 ± 0.09 % dose/g | % dose/organ (Skin, 2 hr after iv injection): 4.60 ± 0.29 % dose/organ | % dose/g [20]: 5.11 ± 0.49 % dose/g | % dose/organ [20]: 0.47 ± 0.03 % dose/organ | % dose/g [21]: 2.12 ± 0.33 % dose/g | % dose/organ [21]: 0.23 ± 0.01 % dose/organ | % dose/g [22]: 1.81 ± 0.17 % dose/g | % dose/organ [22]: 0.23 ± 0.02 % dose/organ | % dose/g [23]: 2.08 ± 0.44 % dose/g | % dose/organ [23]: 0.19 ± 0.03 % dose/organ
Compound: CNc1ccc(-c2ccc3cc(OCCOCCOCCF)ccc3c2)cc1 [[^18F][4-(6-{2-[2-(2-Fluoro-ethoxy)-ethoxy]-ethoxy}-naphthalen-2-yl)-phenyl]-methyl-amine]
